Measured values as given in US12697321B2, “Kv1.3 antagonists for use in the treatment of chronic and acute pain” (SEA4US—BIOTECNOLOGIA E RECURSOS MARINHOS, LDA., priority 2019, dated 2026).
Structures can show the parent of a compound that is named as a salt.

How the values were obtained:
[1] = tested on: K^+ currents from sdTGNs; assay: Whole-cell voltage-clamp of K+ currents in small diameter trigeminal ganglion neurons; conditions: dose dependent manner
[2] = tested on: CCI rats (chronic constriction of the sciatic nerve of Wistar rats); conditions: for efficacy for short-term/acute and long-term/chronic neuropathic pain: intravenous administration
[3] = tested on: K^+ currents recorded from a small diameter neuron isolated from a dorsal-root ganglion of the 'affected' side of a CCI rat; assay: Voltage dependence of steady-state inactivation of K+ currents, sdDRG neuron of CCI rat; conditions: CCI rat 28 days after surgery
[4] = molecular target: T1, hKv1.3 (Homo sapiens, UniProt P22001); assay: Whole-cell voltage-clamp on cell lines expressing Kv1.x channels (nitenin); format: cell-based
T1 construct: expressed in transfected cells
Description: In the context of this disclosure, “affinity” relates to the effect on the activity of such channel. Affinity can be measured by voltage clamp recordings of currents evoked by cells that express solely that given channel.
Voltage-clamp recordings under the whole-cell configurations were/are used to measure the ‘amount of inhibition’ of the whole-cell current evoked by a given channel expressed in non-excitable cell lines. Dose responses are obtained by measuring such inhibitions per each concentration. Voltage-activated K+ currents were evoked from mammalian cell lines expressing Kv1.1, Kv1.2, Kv1.3, Kv1.4, Kv1.5, kv1.6 or kv1.7 using standard voltage protocols (Schmitz et al., 2005; Vennekamp et al.).

T1 sequence (P22001 whole entry): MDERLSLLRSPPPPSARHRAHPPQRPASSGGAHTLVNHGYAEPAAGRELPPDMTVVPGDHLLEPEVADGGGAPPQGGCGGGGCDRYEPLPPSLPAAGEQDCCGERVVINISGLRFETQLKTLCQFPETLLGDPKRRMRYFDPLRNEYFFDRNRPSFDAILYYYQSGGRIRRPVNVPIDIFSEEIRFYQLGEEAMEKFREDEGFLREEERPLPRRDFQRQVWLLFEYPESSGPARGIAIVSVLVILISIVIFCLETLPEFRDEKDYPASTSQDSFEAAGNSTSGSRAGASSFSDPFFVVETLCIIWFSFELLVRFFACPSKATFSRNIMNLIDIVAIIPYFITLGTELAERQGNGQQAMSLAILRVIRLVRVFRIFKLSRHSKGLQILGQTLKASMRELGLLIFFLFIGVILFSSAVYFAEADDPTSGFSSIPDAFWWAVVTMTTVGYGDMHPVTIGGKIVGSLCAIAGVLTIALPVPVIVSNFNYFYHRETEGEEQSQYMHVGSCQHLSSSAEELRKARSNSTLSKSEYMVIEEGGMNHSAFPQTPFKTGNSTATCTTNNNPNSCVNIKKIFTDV

Structure (SMILES)	effect on K+ currents from sdTGNs [1]	efficacy for short-term/acute and long-term/chronic neuropathic pain [2]	Vh1 (voltage of half maximum current, component 1) of steady-state inactivation ([3]; AM92016 hidrochloride 40 nM, control Vh1=−71.3 mV) [mV]	Vh2 (voltage of half maximum current, component 2) of steady-state inactivation ([3]; AM92016 hidrochloride 40 nM, control Vh2=−28.2 mV) [mV]	Vh1 (voltage of half maximum current, component 1) of steady-state inactivation ([3]; PAP-1 2 nM, control Vh1=−90.1 mV) [mV]	Vh2 (voltage of half maximum current, component 2) of steady-state inactivation ([3]; PAP-1 2 nM, control Vh2=−27.8 mV) [mV]	IC50 [4] [nM]	mechanical sensitivity of the ipsilateral leg at maximum effect ([2]; nitenin IV, estimated plasma concentration 1 μg/ml, 26 days after surgery, Von Frey)	Vh1 (voltage of half maximum current, component 1) of steady-state inactivation ([3]; nitenin 0.29 μM, control Vh1=−73.3 mV) [mV]	Vh2 (voltage of half maximum current, component 2) of steady-state inactivation ([3]; nitenin 0.29 μM, control Vh2=−26.3 mV) [mV]
CN(CCc1ccc(Cl)c(Cl)c1)CC(O)COc1ccc(NS(C)(=O)=O)cc1 (stereo not shown) [AM92016 hydrochloride]	inhibit the K^+ currents	effective	−93.63	−33.6	–	–	–	–	–	–
O=c1ccc2c(OCCCCOc3ccccc3)c3ccoc3cc2o1 [PAP-1, 5-(4-Phenoxybutoxy)psoralen]	inhibit the K^+ currents	effective	–	–	−101.7	−32.6	–	–	–	–
O=c1ccc2c(OCCCCc3ccccc3)c3ccoc3cc2o1 [PSORA-4, 4-(4-Phenylbutoxy)-7H-furo[3,2-g][1]benzopyran-7-one]	inhibit the K^+ currents	effective	–	–	–	–	–	–	–	–
C/C(=C\C1C/C(=C/CCc2ccoc2)C(=O)O1)CCCc1ccoc1 (stereo not shown) [nitenin]	inhibit the K^+ currents	effective	–	–	–	–	~190	in some instances similar to those obtained during baseline	−95.3	−47.0
